Broadly, the IC50 is the concentration that gives 50% inhibition. Read a high IC50 as weaker potency in that assay.

The results in this text go back to ChEMBL document CHEMBL4418285, “1-cyano-pyrrolidine compounds as usp30 inhibitors” (2018).

The target in experiment [1] is T1, Ubiquitin carboxyl-terminal hydrolase 30 (Homo sapiens, UniProt Q70CQ3).
T1 sequence (Q70CQ3 whole entry): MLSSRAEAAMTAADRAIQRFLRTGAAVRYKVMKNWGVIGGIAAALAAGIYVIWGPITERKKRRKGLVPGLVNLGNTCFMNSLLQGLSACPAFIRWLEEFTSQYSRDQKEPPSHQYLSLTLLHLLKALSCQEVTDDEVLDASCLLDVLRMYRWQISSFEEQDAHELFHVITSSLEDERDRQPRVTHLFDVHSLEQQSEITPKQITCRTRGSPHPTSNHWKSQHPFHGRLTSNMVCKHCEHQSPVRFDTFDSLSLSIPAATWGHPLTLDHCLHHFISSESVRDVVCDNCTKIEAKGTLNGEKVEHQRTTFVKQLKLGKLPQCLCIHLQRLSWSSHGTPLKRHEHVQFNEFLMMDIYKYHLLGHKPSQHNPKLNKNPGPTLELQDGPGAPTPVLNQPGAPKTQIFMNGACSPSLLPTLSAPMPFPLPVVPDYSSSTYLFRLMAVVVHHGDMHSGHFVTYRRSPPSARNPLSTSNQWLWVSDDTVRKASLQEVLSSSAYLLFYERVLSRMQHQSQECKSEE
The experiment is described as follows: Inhibition of human USP30 catalytic domain (57 to 517 residues) using ubiquitin-rhodamine 110 as substrate preincubated for 30 min followed by substrate addition and measured after 2 hrs by fluorescence intensity kinetic assay.

The target in experiment [2] is T1, Ubiquitin carboxyl-terminal hydrolase 30. The experiment is described as follows: Inhibition of untagged human USP30 catalytic domain (57 to 517 residues) expressed in Escherichia coli using TAMRA labeled ubiquitin peptide as substrate preincubated for 30 min followed by substrate addition and measured after 2 hrs by fluorescence polarization assay. On the technique in general: In fluorescence polarisation assays a small probe gives low polarisation when free and higher when bound to something large.

`N#CN1CC[C@@H](NC(=O)c2ccc(N3CCOCC3)cc2)C1` displayed a half-maximal inhibitory concentration (IC50) in experiment [1] of 100 to 1000 nM.
`N#Cc1ccc(NC(=O)N2CC[C@@H]3CN(C#N)C[C@@H]32)c(F)c1` registered an IC50 in experiment [2] of 100 to 1000 nM.
Regarding `COc1cc(-c2cc(C(=O)N(C)[C@@H]3CCN(C#N)C3)on2)ccn1`, the IC50 in experiment [1] was 100 to 1000 nM.
`N#CN1C[C@H]2CCN(C(=O)Nc3cc(Cl)ccc3F)[C@H]2C1` came in with a 50% inhibitory concentration (IC50) in experiment [2] of 100 to 1000 nM.
In experiment [1], `N#CN1C[C@H]2CCN(C(=O)N3CCc4ccccc43)[C@H]2C1` yielded an IC50 of 1000 to 10000 nM.
